Where two headings read alike, the source gives them in different places.
Key:
[1] = molecular target: human GABA A α5β3γ2 (Homo sapiens, UniProt P18507+P31644); assay: [3H]flumazenil competition binding, HEK293 cells expressing human α5β3γ2; design: expressed in transfected cells; host or cells: HEK293
[2] = test system: Ts65Dn and control mice; assay: Spontaneous activity: actimetry; type: in vivo; conditions: 20 mg/kg p.o. chronic, vs vehicle
Description: (§1) For mice studies, active pharmaceutical compounds of present invention were formulated in chocolate-milk (Puleva, Barcelona, Spain). Active pharmaceutical compounds of present invention or vehicle were administered p.o. at a dose of 20 mg/kg for six weeks. Their administration was prolonged during the 30 days of the behavioral assessment.
In this test the circadian variation of the animals' spontaneous locomotor activity during a complete light-dark cycle of 24 hours was evaluated. The apparatus is a device (Acti-system II, Panlab, Barcelona) that detects the changes produced in a magnetic field by the movement of the mice. It registers the movements of animals during a continuous 24 hour cycle (12 hours of light and 12 hours of darkness).

[3] = molecular target: human GABA A α2β3γ2 (Homo sapiens, UniProt P18507+P47869); assay: [3H]flumazenil competition binding, HEK293 cells expressing human α2β3γ2; design: expressed in transfected cells; host or cells: HEK293; conditions: for hKi α2/hKi α5: binding selectivity ratio
[4] = molecular target: T1, human GABA A α3β3γ2 (Homo sapiens, UniProt P18507+P34903); assay: [3H]flumazenil competition binding, HEK293 cells expressing human α3β3γ2; design: expressed in transfected cells; host or cells: HEK293; conditions: for hKi α3/hKi α5: binding selectivity ratio
[5] = molecular target: T1, human GABA A α3β3γ2; assay: Two-microelectrode voltage clamp, modulation of GABA EC10 response in Xenopus oocytes, α3β3γ2; type: cell-based; design: expressed in transfected cells; host or cells: Xenopus laevis oocytes; conditions: % change of EC10 GABA response at 3 μM or at 30×Ki if Ki below 0.1 μM
Description: Table 2b. […] Effect at human GABA A α5 receptors: % change of a submaximal (EC10) response to GABA determined at 30×Ki value from the flumazenil binding assay.
Subtype-selective effects were determined on cloned receptors expressed in Xenopus oocytes. Human recombinant GABA A receptors were expressed in Xenopus laevis oocytes. Current responses were evoked in two-microelectrode voltage-clamp condition by applying an EC10 of GABA before and during the co-application of the test compound. Response amplitudes in the presence of the test compound are expressed as percentage of the amplitudes before drug addition.

[6] = test system: Ts65Dn and control mice; assay: Open field; type: in vivo; conditions: mice of either genotype; for horizontal or vertical activity in open field: 20 mg/kg p.o. chronic; for anxiogenic effect (activity in the center of the open field): chronic administration
Description: as §1
Exploratory behavior and anxiety were assessed using a square-shaped open field (55 cm×55 cm, surrounded by a 25-cm-tall fence), divided into 25 equal squares. The animals were placed in the center of the field, and the number of vertical (rearing) activities and horizontal crossings (from square to square, subdivided into center vs. peripheral crossings) were scored in a single 5-min trial.

[7] = test system: Ts65Dn and control mice; assay: Exploratory activity: hole board; type: in vivo; conditions: 20 mg/kg p.o. chronic; for ABA index / Crossings / Number of Head-dippings / Rearings / Time exploring holes: hole board
Description: as §1
The hole board is a wooden box (32×32×30 cm) with four holes. The floor is divided into nine 10 cm squares. In a single 5 minute trial the number of explorations, the time spent exploring each hole, and overall activity in the apparatus were measured. A repetition index was also calculated (exploration of holes previously explored) as a function of the number of ABA alternations.

[8] = molecular target: human GABA A α1β2/3γ2 (Homo sapiens, UniProt P14867+P18507); assay: [3H]flumazenil competition binding, HEK293 cells expressing human α1β2/3γ2; design: expressed in transfected cells; host or cells: HEK293; conditions: for Ki: [3H]flumazenil competition, human α1β2/3γ2, read-out: hKi α1; for hKi α1/hKi α5: binding selectivity ratio
[9] = test system: Ts65Dn and control mice; assay: Spatial learning: Morris water maze; type: in vivo; conditions: 20 mg/kg p.o. chronic; for Ts65Dn mice performance in MWM acquisition sessions / control mice performance in MWM acquisition sessions: vs vehicle; for latency to reach the platform during cued sessions: in Ts65Dn but not in control mice
Description: as §1
To evaluate spatial learning the Morris Water Maze was used. The apparatus was a circular tank of 110 cm in diameter, full of water (22-24° C.) made opaque by the addition of powdered milk. Inside the tank, a platform was hidden 1 cm below the water level. Animals were tested at the end of the treatment period in 12 consecutive daily sessions: 8 acquisition sessions (platform submerged), followed by 4 cued sessions (platform visible). All trials were videotaped with a camera located 2 m above the water level. A SMART computerized tracking system (Panlab S. A., Barcelona, Spain) was used to analyze the mouse trajectories, measure escape latency, distance traveled, and swimming speed for each animal in each trial.
In the acquisition sessions (S1-S8), the platform was hidden 1 cm below the water level. From one daily session to the next, the platform was placed in a different location (E, SW, center, and NW); each position was used once every four consecutive daily sessions. Each of the 8 acquisition and 4 cued sessions (one session per day) consisted of four pairs of trials, 30-45 min apart. For each trial pair, the mice were randomly started from one of four positions (N, S, E, W), which was held constant for both trials. The first trial of a pair was terminated when the mouse located the platform or when 60 s had elapsed; the second trial commenced following a period of 20 s, during which the animal was allowed to stay on the platform. Several fixed cues outside of the maze were constantly visible from the pool.
During the cued sessions the platform was visible: the water level was 1 cm below the platform, and its position was indicated with a flag. Eight trials were performed during each session, following the same experimental procedure as in the acquisition sessions.

Cc1onc(-c2ccc(F)cc2)c1COc1ccc(C(=O)N2CCS(=O)(=O)CC2)cn1 [Compound R1, (1,1-Dioxo-1,6-thiomorpholin-4-yl)-{6-[3-(4-fluoro-phenyl)-5-methyl-isoxazol-4-ylmethoxy]-pyridin-3-yl}-methanone]
Ki ([1]; [3H]flumazenil competition, human α5β3γ2, read-out: hKi α5): 4.7 nM | spontaneous activity in home cage, dark or light phase [2]: did not differ in the amount of spontaneous activity | Ki [3]: 502 nM | hKi α2/hKi α5 [3]: 107 | Ki [4]: 489 nM | hKi α3/hKi α5 [4]: 104 | Efficacy GABA A α3β3γ2 [5]: −2% | horizontal or vertical activity in open field [6]: did not significantly affect | anxiogenic effect (activity in the center of the open field) [6]: did not produce an anxiogenic effect | hyperactivity (crossings) of Ts65Dn mice in hole board ([7]; Ts65Dn mice): reduced this hyperactivity | ABA index ([7]; Ts65Dn mice): 4.25 | Crossings ([7]; Ts65Dn mice): 93.19 | Number of Head-dippings ([7]; Ts65Dn mice): 20.50 | Rearings ([7]; Ts65Dn mice): 13.19 | Time exploring holes ([7]; Ts65Dn mice): 37.58 | ABA index ([7]; control mice): 4.06 | Crossings ([7]; control mice): 72.13 | Number of Head-dippings ([7]; control mice): 16.13 | Rearings ([7]; control mice): 13.86 | Time exploring holes ([7]; control mice): 28.28 | Ki [8]: 985 nM | hKi α1/hKi α5 [8]: 209 | difference between Ts65Dn and control learning curves in MWM [9]: reduced | Ts65Dn mice performance in MWM acquisition sessions [9]: improved Ts65Dn mice cognition | control mice performance in MWM acquisition sessions [9]: did not significantly affect control mice performance | latency to reach the platform during cued sessions [9]: reduced the latency to reach the platform

FC(F)c1ncn2c1Cn1ncnc1-c1cc(Br)ccc1-2 [Compound 8581, 3-Bromo-10-difluoromethyl-9H-imidazo[1,5-a][1,2,4]triazolo[1,5-d][1,4]benzodiazepine]
Ki [1]: 4.6 nM | spontaneous activity in home cage, dark or light phase [2]: did not differ in the amount of spontaneous activity | Ki ([3]; [3H]flumazenil competition, human α2β3γ2, read-out: hKi α2): 185 nM | hKi α2/hKi α5 [3]: 40 | Ki [4]: 79.6 nM | hKi α3/hKi α5 [4]: 17 | Efficacy GABA A α3β3γ2 [5]: −1% | horizontal or vertical activity in open field [6]: did not significantly affect | anxiogenic effect (activity in the center of the open field) [6]: did not produce an anxiogenic effect | hyperactivity (crossings) of Ts65Dn mice in hole board ([7]; Ts65Dn mice): reduced this hyperactivity | normalization of ABA index of Ts65Dn mice ([7]; Ts65Dn mice): normalized | ABA index ([7]; Ts65Dn mice): 3.89 | Crossings ([7]; Ts65Dn mice): 106.11 | Number of Head-dippings ([7]; Ts65Dn mice): 18.22 | Rearings ([7]; Ts65Dn mice): 20.67 | Time exploring holes ([7]; Ts65Dn mice): 26.28 | ABA index ([7]; control mice): 2.64 | Crossings ([7]; control mice): 73.27 | Number of Head-dippings ([7]; control mice): 14.82 | Rearings ([7]; control mice): 17.73 | Time exploring holes ([7]; control mice): 30.43 | Ki [8]: 174 nM | hKi α1/hKi α5 [8]: 38 | difference between Ts65Dn and control learning curves in MWM [9]: reduced | Ts65Dn mice performance in MWM acquisition sessions [9]: significantly improved Ts65Dn mice performance | control mice performance in MWM acquisition sessions [9]: did not significantly affect control mice performance | latency to reach the platform during cued sessions [9]: reduced the latency to reach the platform

From patent US8835425B2, “Use of selective GABA A α5 negative allosteric modulators for the treatment of central nervous system conditions” (Hoffmann-La Roche Inc., priority 2010, dated 2014)
